Measurements reported in paper PMC7606800 (The Science of the total environment, 2020).

Molecular target: NfnB (PpNfnB) (Pseudomonas putida, UniProt Q88K59)
Test: nitroreduction, HPLC-ICP-MS
Type: biochemical
Settings: 4 uM substrate, 1 uM enzyme, 0.2 mM NADPH, 25 uM FMN, pH 7.0, 37 °C

For `O=[N+]([O-])c1ccc([As](=O)(O)O)cc1` [Nit(V), 4-nitrophenylarsonic acid], which “nitroreduction, HPLC-ICP-MS” value is on record?
Its value is “NfnB also reduces Nit(V) to p-ASA(V)”.
